From US7601717B2, “Pterin analogs” (BioMarin Pharmaceutical Inc., priority 2008, dated 2009)

Tests used:
[1] = Stability in simulated gastric fluid; assay type: in vitro ADME; settings: over a 60 minute period, compound remaining
Method: (§1) The stability of various compounds as disclosed herein was tested in human and rat and in simulated gastric fluid. Each compound was tested over an hour period for concentration of the compound remaining at each time point. The results are shown in FIGS. 3 (human plasma stability), 4 (rat plasma stability), and 5 (simulated gastric fluid stability) for the compounds of Example 2, 3, 4, and 20.

[2] = Stability in human plasma; assay type: in vitro ADME; settings: over a 60 minute period, compound remaining
Method: as §1

[3] = Stability in rat plasma; assay type: in vitro ADME; settings: over a 60 minute period, compound remaining
Method: as §1

[4] = target: eNOS (Homo sapiens, UniProt P29474); assay: Cell-free eNOS activity assay reconstituted from purified components; assay type: biochemical; settings: 1, 10, 100 μM, 90 minutes at 37° C., nitrite by DAN fluorescence
Method: Also tested was the effect of BH4 analogs compared to free BH4 on stimulation of eNOS activity in a cell-free assay system reconstituted from purified components. 90 μL of reaction mixture (25 mM Tris-HCL, pH7.4, 1 μM FAD, 1 μM FMN, 100 μM L-Arginine, 2.5 mM CaCl2, 1 mM NADPH, 0.04 mg/ml Calmodulin) was mixed with 5 μl of eNOS (15 units/ml) and 5 μl of BH4 or BH4 analogs (1, 10, 100 μM), followed by incubation in a 37° C. water bath for 90 minutes. Then 100 μl of water and 20 μl of the nitrite fluorescent probe DAN (2,3-diaminonaphthalene, 316 μM) were added to each reaction and incubated at room temperature for 10 minutes. The dye DAN reacts with nitrite to yield the fluorescent product naphthotriazole. The reaction was then stopped by adding 10 μl of NaOH (2.8 M), and the fluorescence of the samples was read using excitation frequency 375 nm and emission frequency 415 nm.

[5] = Pharmacokinetics and bioavailability, single intravenous or oral doses, partial Latin square crossover; assay type: in vivo, male cynomolgus monkeys; settings: oral 40 mg/kg, n=6
Method: This study was to determine the pharmacokinetics and relative bioavailability of BH4 when given as parent BH4 or an analog of BH4 to male cynomolgus monkeys as single intravenous or oral doses in a partial Latin square crossover design.
Six, male, non-naïve cynomolgus monkeys were fasted overnight prior to dosing through approximately 4 hours postdose. Individual doses were calculated based on body weights recorded on each day of dose administration. Five experimental groups of monkeys were evaluated using a partial Latin square crossover design: Group 1-2 mg/kg BH4 by IV; Group 2-40 mg/kg BH4 by oral gavage; Group 3-2 mg/kg BH4 analog by IV; Group 4-5 mg/kg BH4 analog by oral gavage; Group 5-20 mg/kg BH4 analog by oral gavage. The doses of BH4 analog were prepared as mg/kg equivalents of BH4 (calculated using BH4 and BH4 analog 2HCl molecular weights). The partial Latin square crossover design was used to minimize dose sequence effect on interanimal variability for statistical purposes. The monkeys received their respective dose of BH4 intravenously (2 mL/kg, dissolved in 100 μM ascorbic acid and 5% mannitol in sterile water for injection, SWFI), Example 5 intravenously (2 mL/kg, dissolved in 100 μM ascorbic acid and 5% mannitol in citrate buffer, pH 3) or BH4 or Example 5 by oral gavage (4 mL/kg, dissolved in 100 μM ascorbic acid in SWFI). Prior to use, all intravenous dose formulations were filtered into the final dosing container using a 0.22-micron syringe filter (Millex GS or GV; Millipore).
For intravenous administration, blood (approximately 1 mL) was collected from each animal predose and at 0.083, 0.25, 0.5, 1, 2, 3, 4, 6, 8, 12, 18, and 24 hours postdose. For oral administration, blood (approximately 1 mL) was collected from each animal predose and at 0.25, 0.5, 1, 2, 3, 4, 6, 8, 12, 18, and 24 hours postdose. Blood was collected into tubes containing K2-EDTA anticoagulant, which was maintained in chilled condition, and centrifuged to obtain plasma. Centrifugation began within 30 minutes of collection. Three, 100-μL aliquots of each plasma sample were promptly transferred following centrifugation into individual tubes containing 0.1% (w/v) dithioerythritol (DTE) for storage. Once the plasma aliquot was added, each tube was vortexed briefly to mix then immediately placed on dry ice.

[6] = as above; assay type: in vivo, male cynomolgus monkeys; settings: male, cynomolgus monkey, plasma; intravenous; title 5 mg/kg, text 2 mg/kg; n=6
[7] = test system: Spontaneously Hypertensive rats (SHR); assay: Anti-hypertensive effect, tail-cuff systolic blood pressure in SHR; assay type: in vivo, rat
Method: This study was to determine if the BH4 analogs have a similar hypotensive effect and to determine the steady state pharmacokinetics (PK) profiles of plasma BH4 concentrations.
Male Wistar-Kyoto (WKY) rats and SHR rats (Elevage Janvier, France, 7 weeks old) were housed seven days prior to the beginning of experiments with free access to standard chow and water and maintained on an inversed 12 h dark/light cycle (10:00/22:00). After a one week acclimation period, the animals were trained to the tail-cuff system during one week (3 sessions). The following week, two baseline measurements of blood pressure were performed.
The rats (10 weeks old) then received respective treatments of water, vehicle, 2, 10, or 30 mg/kg/day of BH4 analog (Example 5, Val-BH4) or 100 mg/kg/day BH4 by oral gavage (8 mL/kg, dissolved in 100 μM ascorbic acid) performed once a day during 21 days of treatment. The doses of BH4 analog were prepared as mg/kg equivalents of BH4 (calculated using BH4 and BH4 analog 2HCl molecular weights). Body weight was monitored 3 times per week and the most recent body weight was used to adjust drug and vehicle daily intake. Seven experimental groups of rats were evaluated: Group 1—normotensive WKY rats and water gavage; Group 2—hypertensive SHR rats and water gavage; Group 3—hypertensive SHR rats and vehicle gavage; Group 4—hypertensive SHR rats and BH4 100 mg/kg/day gavage; Group 5—hypertensive SHR rats and BH4 analog 2 mg/kg/day gavage; Group 6—hypertensive SHR rats and BH4 analog 10 mg/kg/day gavage; Group 7—hypertensive SHR rats and 30 mg/kg/day BH4 analog gavage. To account for animal loss or animal disqualification during experimental handling, 10 rats were used in each group, with the expectation to obtain interpretable results for at least 8. Systolic blood pressure (SBP) and heart rate (HR) were measured twice weekly during the 3-week treatment period.
Systolic blood pressure (SBP) and heart rate (HR) were measured using the tail-cuff method, twice before the beginning of the treatment and twice weekly during the 3 week treatment period (6 measurements during the treatment period). Rats were placed in a plastic restraint and warmed to […]. A pneumatic pulse sensor was attached to the tail. After cuff inflation, SBP was measured and HR was determined by counting pulse numbers per minute. Data for each rat was taken an average of at least 4 stable readings. At least 10 cuff inflations were performed for each BP measurement.

[8] = male, cynomolgus monkey, plasma

SMILES: CCC(=O)O[C@@H]([C@H](C)OC(=O)CC)[C@H]1CNc2nc(N)[nH]c(=O)c2N1C(=O)CC [Example 3, Propionic acid 1-(2-amino-4-oxo-5-propionyl-3,4,5,6,7,8-hexahydro-pteridin-6-yl)-2-Propionyloxy-propyl ester]
- stability in simulated gastric fluid [1]: high level of stability
- stability in human plasma [2]: high level of stability
- stability in rat plasma [3]: high level of stability

SMILES: CC(=O)O[C@@H]([C@H](C)OC(C)=O)[C@H]1CNc2nc(N)[nH]c(=O)c2N1C(C)=O [Example 2, Acetic acid 2-acetoxy-1-(5-acetyl-2-amino-4-oxo-3,4,5,6,7,8-hexahydro-pteridin-6-yl)-propyl ester]
- stability in simulated gastric fluid [1]: high level of stability
- stability in human plasma [2]: high level of stability
- stability in rat plasma [3]: high level of stability

SMILES: CCCC(=O)O[C@@H]([C@H](C)OC(=O)CCC)[C@H]1CNc2nc(N)[nH]c(=O)c2N1C(=O)CCC [Example 4, Butyric acid 1-(2-amino-5-butyryl-4-oxo-3,4,5,6,7,8-hexahydro-pteridin-6-yl)-2-butyryloxy-propyl ester]
- stability in simulated gastric fluid [1]: high level of stability
- stability in human plasma [2]: high level of stability
- stability in rat plasma [3]: high level of stability

SMILES: C[C@H](O)[C@H](O)[C@H]1CNc2nc(N)[nH]c(=O)c2N1C(=O)OCc1ccccc1 (stereo in doubt) [Example 20, 2-Amino-6-(1,2-dihydroxy-propyl)-4-oxo-4,6,7,8-tetrahydro-1H-pteridine-5-carboxylic acid benzyl ester]
- stability in simulated gastric fluid [1]: high level of stability
- stability in human plasma [2]: high level of stability
- stability in rat plasma [3]: high level of stability

SMILES: C[C@H](O)[C@H](O)[C@H]1CNc2nc(N)[nH]c(=O)c2N1 [BH4, Tetrahydrobiopterin, reference compound]
- potentiation of eNOS activity [4]: did potentiate eNOS activity in a dose-dependent manner
- bioavailability ([5]; male, cynomolgus monkey, plasma, po, 40 mg/kg, based on 6R-BH4 IV, read-out: Absolute Bioavailability, BH4): 9.8%
- AUC(0-inf) [5, 8]: 13.4 µM·h
- AUC(0-t) [5, 8]: 11.9 µM·h
- Cmax [5, 8]: 2.33 µM
- Tmax [5, 8]: 3.7 h
- half-life [5, 8]: 5.9 h
- Absolute Bioavailability, BH4 ([5]; based on 6R-BH4 IV, 40 mg/kg): 9.2 (4.2) %
- AUC(0-inf) [6]: 6.96 µM·h
- AUC(0-t) [6]: 6.76 µM·h
- Cmax [6]: 7.05 µM
- Tmax [6]: 6.6 min
- lowering of systolic blood pressure (SBP) ([7]; SHR, 100 mg/kg/day oral gavage, after 3 weeks, vs vehicle): about 8.4 mmHg
- blood pressure of SHR ([7]; previous studies, 10, 100, and 500 mg/kg/day, two weeks of oral administration): reduced the blood pressure
